Assay results taken from ChEMBL document CHEMBL1149774, “Synthesis of N-(5,7-diamino-3-phenyl-quinoxalin-2-yl)-3,4,5-substituted anilines and N-[4[(5,7-diamino-3-phenylquinoxalin-2-yl)amino]benzoyl]-l-glutamic acid diethyl ester: evaluation of in vitro anti-cancer and anti-folate activities” (Eur J Med Chem, 2008).

What was measured:
RPMI-8226 = assay: Growth inhibition of human RPMI8226 cells after 48 hrs by SRB staining method; type: functional; conditions: RPMI-8226, 48 h
BT-549 = assay: Growth inhibition of human BT549 cells after 48 hrs by SRB staining method; type: functional; conditions: BT-549, 48 h
HCC 2998 = assay: Growth inhibition of human HCC2998 cells after 48 hrs by SRB staining method; type: functional; conditions: HCC 2998, 48 h
UO-31 = assay: Growth inhibition of human UO31 cells after 48 hrs by SRB staining method; type: functional; conditions: UO-31, 48 h
[1] = Growth inhibition of human HS 578T cells after 48 hrs by SRB staining method; type: functional
SNB-75 = assay: Growth inhibition of human SNB75 cells after 48 hrs by SRB staining method; type: functional; conditions: SNB-75, 48 h
A498 = assay: Growth inhibition of human A498 cells after 48 hrs by SRB staining method; type: functional; conditions: A498, 48 h
PC-3 = assay: Growth inhibition of human PC3 cells after 48 hrs by SRB staining method; type: functional; conditions: PC-3, 48 h
HOP-92 = assay: Growth inhibition of human HOP92 cells after 48 hrs by SRB staining method; type: functional; conditions: HOP-92, 48 h
SK-MEL-28 = assay: Growth inhibition of human SK-MEL-28 cells after 48 hrs by SRB staining method; type: functional; conditions: SK-MEL-28, 48 h
K562 = assay: Growth inhibition of human K562 cells after 48 hrs by SRB staining method; type: functional; conditions: K562, 48 h
T47D = assay: Growth inhibition of human T47D cells after 48 hrs by SRB staining method; type: functional
SW-620 = assay: Growth inhibition of human SW620 cells after 48 hrs by SRB staining method; type: functional; conditions: SW-620, 48 h
SK-MEL-2 = assay: Growth inhibition of human SK-MEL-2 cells after 48 hrs by SRB staining method; type: functional; conditions: SK-MEL-2, 48 h
IGROV-1 = assay: Growth inhibition of human IGROV1 cells after 48 hrs by SRB staining method; type: functional; conditions: IGROV-1, 48 h
MDA-MB-231 = assay: Growth inhibition of human MDA-MB-231 cells after 48 hrs by SRB staining method; type: functional; conditions: MDA-MB-231, 48 h
HT-29 = assay: Growth inhibition of human HT29 cells after 48 hrs by SRB staining method; type: functional; conditions: HT-29, 48 h
MDA-N = assay: Growth inhibition of human MDA-N cells after 48 hrs by SRB staining method; type: functional
SNB-19 = assay: Growth inhibition of human SNB19 cells after 48 hrs by SRB staining method; type: functional; conditions: SNB-19, 48 h
ACHN = assay: Growth inhibition of human ACHN cells after 48 hrs by SRB staining method; type: functional
A549 = assay: Growth inhibition of human A549 cells after 48 hrs by SRB staining method; type: functional; conditions: A549, 48 h
Dihydrofolate reductase = molecular target: T1, Dihydrofolate reductase (Homo sapiens, UniProt P00374); assay: Inhibition of human dihydrofolate reductase
T1 sequence (P00374 whole entry): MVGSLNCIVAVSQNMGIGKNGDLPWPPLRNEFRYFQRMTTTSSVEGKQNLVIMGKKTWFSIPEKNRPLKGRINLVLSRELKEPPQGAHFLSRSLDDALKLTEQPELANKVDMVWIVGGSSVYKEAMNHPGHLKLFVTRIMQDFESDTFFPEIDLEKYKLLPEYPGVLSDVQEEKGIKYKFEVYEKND

Thymidylate synthase = Thymidylate synthase (Homo sapiens, UniProt P04818)
Chain of Thymidylate synthase (P04818 whole entry): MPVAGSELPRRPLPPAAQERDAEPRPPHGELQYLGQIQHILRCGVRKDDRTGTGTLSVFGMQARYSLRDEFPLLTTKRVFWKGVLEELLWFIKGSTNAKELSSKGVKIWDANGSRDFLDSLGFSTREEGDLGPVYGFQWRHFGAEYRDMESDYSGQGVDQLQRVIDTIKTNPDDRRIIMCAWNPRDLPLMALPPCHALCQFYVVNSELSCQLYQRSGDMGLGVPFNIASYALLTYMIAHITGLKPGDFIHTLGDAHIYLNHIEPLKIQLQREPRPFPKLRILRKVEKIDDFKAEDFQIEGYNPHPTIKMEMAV
Description: Inhibition of human thymidylate synthase

COLO 205 = assay: Growth inhibition of human COLO205 cells after 48 hrs by SRB staining method; type: functional; conditions: COLO 205, 48 h
CAKI-1 = assay: Growth inhibition of human CAKI1 cells after 48 hrs by SRB staining method; type: functional; conditions: CAKI-1, 48 h
Malme-3M = assay: Growth inhibition of human MALME-3M cells after 48 hrs by SRB staining method; type: functional
CCRF-CEM = assay: Growth inhibition of human CCRF-CEM cells after 48 hrs by SRB staining method; type: functional
[2] = read-out: pLC50 (the source's name) (converted)

Structure (SMILES): COc1cc(Nc2nc3cc(N)cc(N)c3nc2-c2ccccc2)cc(OC)c1
- GI50 (RPMI-8226): 1.26 µM
- CC50 (RPMI-8226; [2]): 32.4 µM
- TGI (RPMI-8226; read-out: pTGI (converted)): 10.5 µM
- GI50 (BT-549): 4.68 µM
- CC50 (BT-549; [2]): > 100 µM
- TGI (BT-549; read-out: pTGI (converted)): 31.6 µM
- GI50 (HCC 2998): 24.5 µM
- LC50 (HCC 2998): > 100 µM
- TGI (HCC 2998; read-out: pTGI (converted)): > 100 µM
- GI50 (UO-31): 8.91 µM
- CC50 (UO-31; [2]): > 100 µM
- TGI (UO-31; read-out: pTGI (converted)): 44.7 µM
- GI50 [1]: 11 µM
- CC50 [1, 2]: > 100 µM
- TGI ([1]; read-out: pTGI (converted)): 63.1 µM
- GI50 (SNB-75): 3.72 µM
- LC50 (SNB-75): > 100 µM
- TGI (SNB-75; read-out: pTGI (converted)): 44.7 µM
- GI50 (A498): 4.9 µM
- CC50 (A498; [2]): 79.4 µM
- TGI (A498; read-out: pTGI (converted)): 22.4 µM
- GI50 (PC-3): 1.95 µM
- CC50 (PC-3; [2]): 57.5 µM
- TGI (PC-3; read-out: pTGI (converted)): 11 µM
- LC50 (HOP-92): > 100 µM
- GI50 (SK-MEL-28): 14.8 µM
- CC50 (SK-MEL-28; [2]): > 100 µM
- TGI (SK-MEL-28; read-out: pTGI (converted)): 89.1 µM
- GI50 (K562): 27.5 µM
- CC50 (K562; [2]): > 100 µM
- TGI (K562; read-out: pTGI (converted)): > 100 µM
- GI50 (T47D): 4.47 µM
- CC50 (T47D; [2]): > 100 µM
- TGI (T47D; read-out: pTGI (converted)): 22.9 µM
- GI50 (SW-620): 26.9 µM
- CC50 (SW-620; [2]): > 100 µM
- TGI (SW-620; read-out: pTGI (converted)): > 100 µM
- GI50 (SK-MEL-2): 12 µM
- LC50 (SK-MEL-2): > 100 µM
- TGI (SK-MEL-2; read-out: pTGI (converted)): 63.1 µM
- GI50 (IGROV-1): 2.69 µM
- LC50 (IGROV-1): > 100 µM
- TGI (IGROV-1; read-out: pTGI (converted)): 17 µM
- GI50 (MDA-MB-231): 6.46 µM
- CC50 (MDA-MB-231; [2]): > 100 µM
- TGI (MDA-MB-231; read-out: pTGI (converted)): 34.7 µM
- GI50 (HT-29): 27.5 µM
- LC50 (HT-29): > 100 µM
- TGI (HT-29; read-out: pTGI (converted)): > 100 µM
- GI50 (MDA-N): 12.9 µM
- CC50 (MDA-N; [2]): 100 µM
- TGI (MDA-N; read-out: pTGI (converted)): 36.3 µM
- GI50 (SNB-19): 57.5 µM
- LC50 (SNB-19): > 100 µM
- TGI (SNB-19; read-out: pTGI (converted)): > 100 µM
- GI50 (ACHN): 5.62 µM
- CC50 (ACHN; [2]): > 100 µM
- TGI (ACHN; read-out: pTGI (converted)): 83.2 µM
- GI50 (A549): 20 µM
- CC50 (A549; [2]): > 100 µM
- TGI (A549; read-out: pTGI (converted)): > 100 µM
- Ki (Dihydrofolate reductase): 0.6 µM
- Ki (Thymidylate synthase): 25 µM
- GI50 (COLO 205): 14.5 µM
- LC50 (COLO 205): 67.6 µM
- TGI (COLO 205; read-out: pTGI (converted)): 31.6 µM
- GI50 (CAKI-1): 14.8 µM
- CC50 (CAKI-1; [2]): > 100 µM
- TGI (CAKI-1; read-out: pTGI (converted)): 72.4 µM
- GI50 (Malme-3M): 4.37 µM
- LC50 (Malme-3M): > 100 µM
- TGI (Malme-3M; read-out: pTGI (converted)): 24.5 µM
- GI50 (CCRF-CEM): < 0.01 µM
- CC50 (CCRF-CEM; [2]): 0.977 µM
- TGI (CCRF-CEM; read-out: pTGI (converted)): 0.166 µM
